Key:
[1] = system: IL-6 mRNA; assay: LPS-dependent IL-6 mRNA in THP-1-derived macrophages (RT-PCR); type: cell-based, human; conditions: 50 µM, 10 ng/ml LPS 6 h
Experimental: F i g u re S3: Eff ect of benzofuran compounds on the lev els of LP S -dependent mRNA of CCL2 and IL-6 in THP-1 –deriv ed macrophages. Human-monoc yti c cell l ine-THP-1 wer e treat ed with PMA (25 nM for 48 hours) th en in cub ated with 50 μM compounds for 30 minutes b efo re the addit ion of 10 ng/ml LP S fo r 6 hours. Gene ex pression of IL6 and CCL2 were measur ed by RT-PCR and the v alu es wer e nor mal ized to GAPDH. Results represent means ± SEM by one way ANOVA followed by Dunnett test.

[2] = system: COX-2 protein expression; assay: COX-2 protein expression in LPS-treated macrophages (Western blot); type: cell-based, C57BL/6J mice; conditions: 10 µM for compounds 1, 7, 9, 50 µM for others, LPS 24 h
Experimental: Figure 4 Effects of the fluorinated benzofuran and dihydrobenzofuran on COX-2 and NOS2 protein expressions. COX-2 and NOS2 protein expressions were assessed in macrophages incubated with only 10 µM for compounds 1, 7, and 9, and 50 µM for the other compounds, for 30 min prior to the addition of 10 ng/mL LPS for 24 h. β-actin was used as a loading control, and densitometric analysis was performed using ImageJ software (NIH, MA). Data are expressed as fold of LPS-treated macrophages and represented as mean ± SEM of 4 different experiments; * p < 0.05 versus LPS (one-way ANOVA followed by Dunnett’s test).
Macrophages were incubated with the compounds for 30 min prior to the addition of 10 ng/mL LPS for 24 h. Protein levels for COX-2 and NOS2 were detected in LPS-stimulated macrophages. As previously described, 10 µg of total protein was assessed. The primary antibodies were developed and characterized as previously described: for COX-2, mouse monoclonal antibody anti-COX-2 (clone COX-214, 1/5000); for NOS2, rabbit polyclonal antibody anti-NOS2 (dilution1/2000 [33]). Antibodies anti-phospho-NF-κB (3033S), phospho-IκBα (9246S), and total IκBα (4814S) were from Cell Signaling Technologies (Danvers, MA, USA). Total NF-κB C-20 (sc-372) was from Santa Cruz Biotechnologies (Dallas, TX, USA), and mouse β-actin (dilution 1/10,000) (Sigma-Aldrich, A5441). Clarity™ western ECL substrate (Bio-Rad Laboratories 10-5061) was used according to the manufacturer’s instructions to reveal positive bands visualized using Bio-Rad ChemiDoc. For Bcl-2 and cleaved PARP-1, HCT116 cells were plated in 6-well plates (200,000 cells per well) for 24 h, and treated with compounds 1 and 2 at 10, 25, and 50 µM for 72 h. Supernatants and cells were collected and lysed using RIPA lysis buffer containing inhibitors of protease. Western blot of Bcl-2 and cleaved PARP-1 was performed using 25 µg of total protein with a rabbit polyclonal antibody anti-Bcl-2 (1/500) (Santa Cruz Biotechnology, sc-492), rabbit polyclonal antibody anti-PARP-1 (1/1000) (Santa Cruz Biotechnology, sc-7150), and mouse anti-β-actin (dilution 1/10,000) (Sigma-Aldrich, A5441).
Densitometric analyses were performed using ImageJ software (NIH, MA, USA). The ratio of the different analyzed bands to β-actin was determined and data are represented as fold change compared to the LPS-treated cells. Percentage of viable cells for proliferation assay was determined as percentage to control (non-treated cells). For TUNEL assay, apoptotic cells were quantified, and results were expressed as percentage to positive cells (cleaved DNA) compared to control (non-treated cells). Statistical analysis was performed using one-way ANOVA, followed by Dunnett’s multiple comparisons test using GraphPad Prism software. Differences were considered significant when p < 0.05.

[3] = system: PGE2; assay: PGE2 release in LPS-treated macrophages (BMDM); type: cell-based, C57BL/6J mice; conditions: 10 µM for compounds 1, 7, 9, 50 µM for others, 10 ng/mL LPS 24 h
Experimental: C57BL/6J (10–15 weeks old) male mice were obtained from the animal care facility at the American University of Beirut. All animal procedures were performed following the recommendations of the IACUC (Institutional Animal Care and Use Committee approval 16-09-M379). BMDMs were prepared and characterized as described previously by our group. BMDMs were isolated from C57BL/6J mice by flushing the femur and tibia with RPMI-1640 culture media (Sigma-Aldrich R7388), and cells were collected and centrifuged at 300× g for 5 min. The supernatant was discarded, and the pellet was resuspended in 2 mL red blood lysis 10% (Sigma-Aldrich R7767) medium in PBS and incubated for 5 min at room temperature. After diluting the suspension of cells with 5 mL of RPMI containing 10% FBS and 1% penicillin–streptomycin, cells were centrifuged at 300× g for 5 min, and the cell pellet was resuspended in RPMI media containing 10% FBS supplemented with 15% L929-conditioned medium containing macrophage-colony stimulating factor (M-CSF1) and plated on […]. Cells were allowed to proliferate and differentiate for 5–6 days. Cells were harvested, washed, and allowed to adhere overnight in RPMI containing 10% FBS for treatment. Cells were previously characterized by flow cytometry as macrophages using this method. […] Cells were plated at 0.8 × 10^6 cells per 3.8 cm^2 well [27].
BMDMs were then treated with different concentrations of the benzofuran and dihydrobenzofuran derivatives for 30 min prior to the addition of 10 ng/mL LPS for 24 h. […] The supernatants were assessed for IL-6, PGE2, CCL2, and nitrite, the stable derivative of NO, as described previously.
(§1) IL-6, CCL2, nitrite (for NO), and PGE2 concentrations from 3–5 independent experiments were expressed as percentage of LPS alone and as mean ± SEM. COX activity was determined as percentage of PGE2 produced from exogenous arachidonic acid. Curve fitting and calculation of IC50 values were performed using GraphPad Prism (version 9.5.1 Software, La Jolla, CA, USA).

[4] = molecular target: T1, COX-1 (Homo sapiens, UniProt P23219); assay: COX-1 activity: PGE2 from exogenous arachidonic acid in HEK-293 cells overexpressing COX-1; type: cell-based; conditions: 10 µM for compounds 1, 7, 9, 50 µM for others; 10 µM arachidonic acid
T1 construct: expressed in transfected cells
T1 sequence (P23219 24-599): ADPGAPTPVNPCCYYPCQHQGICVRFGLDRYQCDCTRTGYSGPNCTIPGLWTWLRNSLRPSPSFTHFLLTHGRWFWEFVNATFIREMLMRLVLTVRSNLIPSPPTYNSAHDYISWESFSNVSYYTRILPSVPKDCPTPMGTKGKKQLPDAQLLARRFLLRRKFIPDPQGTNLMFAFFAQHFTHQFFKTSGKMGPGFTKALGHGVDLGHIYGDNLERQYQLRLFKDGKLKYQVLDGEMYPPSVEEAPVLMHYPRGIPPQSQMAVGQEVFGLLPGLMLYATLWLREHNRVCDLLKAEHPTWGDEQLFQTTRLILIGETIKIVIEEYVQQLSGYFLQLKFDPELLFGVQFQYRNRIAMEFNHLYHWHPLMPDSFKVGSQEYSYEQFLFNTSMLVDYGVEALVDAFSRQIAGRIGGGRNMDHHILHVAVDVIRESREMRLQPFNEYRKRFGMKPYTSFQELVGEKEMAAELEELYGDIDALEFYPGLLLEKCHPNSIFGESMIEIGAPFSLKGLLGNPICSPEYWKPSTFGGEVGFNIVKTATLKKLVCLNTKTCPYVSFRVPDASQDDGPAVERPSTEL
Experimental: Figure 3 Effects of the fluorinated benzofuran and dihydrobenzofuran on COX-1 and COX-2 activities. (A) Illustration for COX-1 activity assay. HEK-293 cells stably overexpressing COX-1 are treated with the nine derivatives of benzofuran at concentrations of only 10 µM for compounds 1, 7, and 9, and 50 µM for the other compounds, 30 min prior to the addition of 10 µM arachidonic acid (AA). […] (B) COX-1 activity. […] Levels of PGE2 were very low in the absence of arachidonic acid (0.04 ± 0.01 ng/mL) and 104.3 ± 16.7 ng/mL for 10 µM AA. (C) Illustration for COX-2 activity determination. Macrophages are treated with 10 µM of aspirin (ASA) for 30 min to block basal COX activity, washed, and treated with 10 ng/mL LPS for 24 h to induce COX-2. Cells are then washed and incubated 30 min with 50 µM of the different compounds prior to the addition of 10 µM of AA. The produced PGE2 mainly reflects COX-2 activity. (D) COX-2 activity. Percentage of LPS-treated cells was calculated, and data are represented as mean ± SEM (n = 4); * p < 0.05 versus AA for COX-1 activity, and versus LPS + ASA + AA for COX-2 activity (one-way ANOVA followed by Dunnett’s test). […] Levels of PGE2 were very low in the absence of arachidonic acid (0.06 ± 0.01 ng/mL) and 71.7 ± 5.7 ng/mL for 10 µM AA.
COX-1 and COX-2 activities were performed as described previously in human embryonic kidney cell line (HEK-293) stably overexpressing COX-1 [19] and in macrophages, respectively. […] For both COX-1 and COX-2 assays, the benzofuran compounds were then added to the cells for 30 min prior to the incubation with 10 µM arachidonic acid for another 30 min. PGE2 was then measured using an enzyme immunoassay, as described previously.
as §1

[5] = Toxicity on macrophages (BMDM), WST-1 assay; type: cell-based, C57BL/6J mice; conditions: C57BL/6J, mouse, bone marrow-derived macrophages (BMDM), read-out: macrophage viability
Experimental: WST-1 assay (Sigma-Aldrich, 5015944001) was used to determine the toxicity of the synthesized compounds on BMDM and HCT116 (ATCC, CCL-247), kindly provided by Dr. Nadine Darwiche, Department of Biochemistry and Molecular Genetics, American University of Beirut, Lebanon. Briefly, macrophages (50,000 cells per well) and HCT116 (20,000 cells per well) were plated in a 96-well plate in RPMI 1640 culture medium containing 10% fetal bovine serum (FBS) and grown for 24 h. Cells (in triplicates) were treated with 10 or 50 μM of the compounds for macrophages, and 50 or 100 μM for HCT116. Culture medium without cells and cells without treatment were used as basal and maximal activity, respectively. Results were expressed as percentage of cells without treatment.
F i g u re S1: E ff e c t of fluorin at ed benzofuran derivatives on m acrophages
viabilit y. C ells in cub at ed with 10 and 50 μM of benzofuran d eri vativ es
(compounds 1 to 9) bel onging to groups І, II, III and IV for 24 hours. Cell
viabilit y w as det ermin ed by WST-1 assay. Non-t r eated m acrophages wer e used
as cont rol. Results were shown as mean ± SEM (n=3) . *p< 0.05 comp ar ed to the
vehicle –treated cells (basal), one-way ANOVA followed by Dunnett’s test.
(1 picture or pasted object on this page, not shown here)

effect on COX-1 activity [4]	SMILES	effect on IL-6 mRNA levels [1]	effect on LPS-induced COX-2 protein expression [2]	effect on PGE2 production in response to LPS [3]	viability at 24 h, 50 µM [5] [%]
–	O=C(O)/C=C1/Oc2ccccc2C1(F)F [Compound 4]	to a lesser extent	loss of this inhibitory effect	–	–
loss of the inhibitory activity	COC(=O)CC1(SCCO)Oc2ccc(Br)cc2C1(F)F (stereo not drawn) [Compound 7]	–	–	loss of the inhibitory activity	50
–	COC(=O)C1CC(C)=C(C)CC12Oc1ccc(Br)cc1C2(F)F (stereo not drawn) [Compound 9]	–	–	–	50
